Laboratory results: patent US11337970B2, “Inhibitors of indoleamine 2,3-dioxygenase and methods of their use” (BRISTOL-MYERS SQUIBB COMPANY, priority 2016, dated 2022)

target: T1, indoleamine 2,3-dioxygenase (IDO) (Homo sapiens, UniProt P14902); experiment: HeLa cell-based indoleamine 2,3-dioxygenase (IDO) assay (kynurenine production); conditions: HeLa cells, IFNγ 25 ng/mL, 48 hour incubation, absorbance at 480 nm
T1 construct: host or cells: HeLa cells stimulated with IFNγ (25 ng/mL)
Description: Assessment of inhibitor activity in HeLa cell-based indoleamine 2,3-dioxygenase (IDO) assay:
HeLa (ATCC® CCL-2) cells were obtained from the ATCC® and cultured in Dulbecco's Modified Eagle Medium supplemented with 4.5 g/L glucose, […] (#10-013-CV, Corning), 2 mM L-alanyl-L-glutamine dipeptide (#35050-061, Gibco), 100U/mL penicillin, 100 μg/mL streptomycin (#SV30010, HyClone) and 10% fetal bovine serum (#SH30071.03 HyClone). Cells were maintained in a humidified incubator at 37° C. in 5% CO2.
IDO activity was assessed as a function of kynurenine production as follows: HeLa cells were seeded in a 96-well culture plate at a density of 5,000 cells/well and allowed to equilibrate overnight. After 24 hours, the media was aspirated and replaced with media containing IFNγ (#285-IF/CF, R&D Systems) at a final concentration of 25 ng/mL. A serial dilution of each test compound was added to the cells in a total volume of 200 μL of culture medium. After a further 48 hour incubation, 170 μL of supernatant was transferred from each well to a fresh 96-well plate. 12.1 μL of 6.1N trichloroacetic acid (#T0699, Sigma-Aldrich) was added to each well and mixed, followed by incubation at 65° C. for 20 minutes to hydrolyze N-formylkynurenine, the product of indoleamine 2,3-dioxygenase, to kynurenine. The reaction mixture was then centrifuged for 10 mins at 500×g to sediment the precipitate. 100 μL of the supernatant was transferred from each well to afresh 96-well plate. 100 μl of 2% (w/v) p-dimethylaminobenzaldehyde (#15647-7, Sigma-Aldrich) in acetic acid (#A6283, Sigma-Aldrich) was added to each well mixed and incubated at room temperature for 20 mins. Kynurenine concentrations were determined by measuring absorbance at 480 nm and calibrating against an L-kynurenine (#K8625, Sigma-Aldrich) standard curve using a SPECTRAMAX® M2e microplate reader (Molecular Devices). The percentage activity at each inhibitor concentration was determined and IC50 values assessed using nonlinear regression.

T1 sequence (P14902 whole entry): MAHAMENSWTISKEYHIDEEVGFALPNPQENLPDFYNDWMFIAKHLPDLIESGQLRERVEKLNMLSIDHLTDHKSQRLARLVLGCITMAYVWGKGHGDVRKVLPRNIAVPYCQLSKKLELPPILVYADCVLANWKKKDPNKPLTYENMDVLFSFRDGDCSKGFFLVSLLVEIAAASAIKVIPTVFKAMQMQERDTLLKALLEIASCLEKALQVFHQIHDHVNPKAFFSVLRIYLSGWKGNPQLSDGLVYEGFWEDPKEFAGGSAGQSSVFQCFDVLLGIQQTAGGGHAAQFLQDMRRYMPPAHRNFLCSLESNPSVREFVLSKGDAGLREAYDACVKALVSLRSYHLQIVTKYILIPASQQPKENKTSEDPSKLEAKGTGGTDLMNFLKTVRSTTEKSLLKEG

| IC50 [nM] | SMILES |
| --- | --- |
| 68.1 | CC(c1nc2ccc(Cl)cc2[nH]1)C1CCC(c2ccnc3ncccc23)CC1 (mixture of isomers) [Example 34, (±)-Cis and trans-(4-(1-(6-chloro-1H-benzo[d]imidazol-2-yl)ethyl)cyclohexyl)-1,8-naphthyridine] |
| 12.1 | COCC(c1nc2ccc(Cl)cc2[nH]1)[C@H]1CC[C@@H](c2ccnc3ccc(C(F)(F)F)cc32)CC1 (mixture of isomers) [Example 18, (±)-4-((cis)-4-(1-(6-chloro-1H-benzo[d]imidazol-2-yl)-2-methoxyethyl)cyclohexyl)-6-(trifluoromethyl)quinoline] |
| 3.8 | COCC(c1nc2ccc(Cl)cc2[nH]1)[C@H]1CC[C@@H](c2ccnc3ccc(F)cc32)CC1 (mixture of isomers) [Example 19, (±)-4-((cis)-4-(1-(6-chloro-1H-benzo[d]imidazol-2-yl)-2-methoxyethyl)cyclohexyl)-6-fluoroquinoline] |
| 5.8 | CCC(c1nc2ncc(Cl)cc2[nH]1)[C@H]1CC[C@H](Oc2ccnc3ccccc23)CC1 (mixture of isomers) [Example 20, (±)-4-(((trans)-4-(1-(6-chloro-1H-imidazo[4,5-b]pyridin-2-yl)-3-propyl)cyclohexyl)oxy)quinoline] |
| 3.7 | CCC(c1nc2ncc(Cl)cc2[nH]1)[C@H]1CC[C@@H](c2ccnc3ccc(C(F)(F)F)cc32)CC1 (mixture of isomers) [Example 22, (±)-4-((cis)-4-(1-(6-chloro-1H-imidazo[4,5-b]pyridin-2-yl)propyl)cyclohexyl)-6-(trifluoromethyl)quinoline] |
| 7.5 | CCC(c1nc2ncc(Cl)cc2[nH]1)[C@H]1CC[C@@H](c2ccnc(F)c2C)CC1 (mixture of isomers) [Example 24, (±)-6-chloro-2-(1-((cis)-4-(2-fluoro-3-methylpyridin-4-yl)cyclohexyl)-3-propyl)-1H-imidazo[4,5-b]pyridine] |
| 44.9 | CCOCC(c1nc2ccc(Cl)cc2[nH]1)[C@H]1CC[C@@H](c2ccnc(F)c2C)CC1 (mixture of isomers) [Example 25, (±)-6-chloro-2-(2-ethoxy-1-((cis)-4-(2-fluoro-3-methylpyridin-4-yl)cyclohexyl)ethyl)-1H-benzo[d]imidazole] |
| 7.5 | Fc1ccc2nccc(C3CCC(C(CC(F)(F)F)c4nc5ccc(Cl)cc5[nH]4)CC3)c2c1 (racemic) [Example 33, (±)-Cis and trans-4-(4-(1-(6-chloro-1H-benzo[d]imidazol-2-yl)-3,3,3-trifluoropropyl)cyclohexyl)-6-fluoroquinoline] |
| 6 | CCC(c1nc2ncc(Cl)cc2[nH]1)[C@H]1CC[C@H](Oc2ccnc3ccccc23)CC1 (single isomer, unassigned) [Example 20-1] |
| 4.5 | CCC(c1nc2ncc(Cl)cc2[nH]1)[C@H]1CC[C@H](Oc2ccnc3ccccc23)CC1 (single isomer, unassigned) [Example 20-2] |
| 2 | CC[C@H](c1nc2ncc(Cl)cc2[nH]1)[C@H]1CC[C@@H](c2ccnc3ccc(F)cc32)CC1 (single isomer, unassigned) [Example 21-1, 4-(4-(1-(6-chloro-1H-imidazo[4,5-b]pyridin-2-yl)propyl)cyclohexyl)-6-fluoroquinoline] |
| 1000 | CC[C@H](c1nc2ncc(Cl)cc2[nH]1)[C@H]1CC[C@@H](c2ccnc3ccc(F)cc32)CC1 (single isomer, unassigned) [Example 21-2, 4-(4-(1-(6-chloro-1H-imidazo[4,5-b]pyridin-2-yl)propyl)cyclohexyl)-6-fluoroquinoline] |
| 5.1 | CC[C@H](c1nc2ncc(Cl)cc2[nH]1)[C@H]1CC[C@@H](c2ccnc3ccc(F)cc32)CC1 (single isomer, unassigned) [Example 21-3, 4-(4-(1-(6-chloro-1H-imidazo[4,5-b]pyridin-2-yl)propyl)cyclohexyl)-6-fluoroquinoline] |
| 89.7 | CC[C@H](c1nc2ncc(Cl)cc2[nH]1)[C@H]1CC[C@@H](c2ccnc3ccc(F)cc32)CC1 (single isomer, unassigned) [Example 21-4, 4-(4-(1-(6-chloro-1H-imidazo[4,5-b]pyridin-2-yl)propyl)cyclohexyl)-6-fluoroquinoline] |
| 2.4 | CCC(c1nc2ncc(Cl)cc2[nH]1)[C@H]1CC[C@@H](c2ccnc3ccc(C(F)(F)F)cc32)CC1 (single isomer, unassigned) [Example 22-1, 4-((cis)-4-(1-(6-chloro-1H-imidazo[4,5-b]pyridin-2-yl)propyl)cyclohexyl)-6-(trifluoromethyl)quinoline] |
| 99.1 | CCC(c1nc2ncc(Cl)cc2[nH]1)[C@H]1CC[C@@H](c2ccnc3ccc(C(F)(F)F)cc32)CC1 (single isomer, unassigned) [Example 22-2, 4-((cis)-4-(1-(6-chloro-1H-imidazo[4,5-b]pyridin-2-yl)propyl)cyclohexyl)-6-(trifluoromethyl)quinoline] |
| 998 | CCC(c1nc2ccc(Cl)cc2[nH]1)[C@H]1CC[C@@H](c2ccnc(F)c2C)CC1 (single isomer, unassigned) [Example 23-1, 6-chloro-2-(1-((cis)-4-(2-fluoro-3-methylpyridin-4-yl)cyclohexyl)-3-propyl)-1H-benzo[d]imidazole] |
| 3.2 | CCC(c1nc2ccc(Cl)cc2[nH]1)[C@H]1CC[C@@H](c2ccnc(F)c2C)CC1 (single isomer, unassigned) [Example 23-2, 6-chloro-2-(1-((cis)-4-(2-fluoro-3-methylpyridin-4-yl)cyclohexyl)-3-propyl)-1H-benzo[d]imidazole] |
| 375 | CCC(c1nc2ncc(Cl)cc2[nH]1)[C@H]1CC[C@@H](c2ccnc(F)c2C)CC1 (single isomer, unassigned) [Example 24-1, 6-chloro-2-(1-((cis)-4-(2-fluoro-3-methylpyridin-4-yl)cyclohexyl)-3-propyl)-1H-imidazo[4,5-b]pyridine] |
| 2.7 | CCC(c1nc2ncc(Cl)cc2[nH]1)[C@H]1CC[C@@H](c2ccnc(F)c2C)CC1 (single isomer, unassigned) [Example 24-2, 6-chloro-2-(1-((cis)-4-(2-fluoro-3-methylpyridin-4-yl)cyclohexyl)-3-propyl)-1H-imidazo[4,5-b]pyridine] |
| 10.2 | CCOCC(c1nc2ccc(Cl)cc2[nH]1)[C@H]1CC[C@@H](c2ccnc(F)c2C)CC1 (single isomer, unassigned) [Example 25-1, 6-chloro-2-(2-ethoxy-1-((cis)-4-(2-fluoro-3-methylpyridin-4-yl)cyclohexyl)ethyl)-1H-benzo[d]imidazole] |
| 22.9 | CCOCC(c1nc2ccc(Cl)cc2[nH]1)[C@H]1CC[C@@H](c2ccnc(F)c2C)CC1 (single isomer, unassigned) [Example 25-2, 6-chloro-2-(2-ethoxy-1-((cis)-4-(2-fluoro-3-methylpyridin-4-yl)cyclohexyl)ethyl)-1H-benzo[d]imidazole] |
| 14.3 | CC(c1nc2ccc(Cl)cc2[nH]1)C1CCC(c2ccnc3ncccc23)CC1 (single isomer, unassigned) [Example 35-2] |
| 170 | C[C@H](c1nc2ccc(Cl)cc2[nH]1)[C@H]1CC[C@@H](c2ccnc(C(F)(F)F)c2)CC1 (single isomer, unassigned) [Example 39-1, 6-chloro-2-(1-(4-(2-(trifluoromethyl)pyridin-4-yl)cyclohexyl)ethyl)-1H-benzo[d]imidazole] |
| 75.4 | C[C@H](c1nc2ccc(Cl)cc2[nH]1)[C@H]1CC[C@@H](c2ccnc(C(F)(F)F)c2)CC1 (single isomer, unassigned) [Example 39-2, 6-chloro-2-(1-(4-(2-(trifluoromethyl)pyridin-4-yl)cyclohexyl)ethyl)-1H-benzo[d]imidazole] |
| 117 | C[C@H](c1nc2ccc(Cl)cc2[nH]1)[C@H]1CC[C@@H](c2ccnc(C(F)(F)F)c2)CC1 (single isomer, unassigned) [Example 39-3, 6-chloro-2-(1-(4-(2-(trifluoromethyl)pyridin-4-yl)cyclohexyl)ethyl)-1H-benzo[d]imidazole] |
| 459 | C[C@@H](c1nnc2ccccn12)[C@H]1CC[C@@H](c2ccnc3ccc(F)cc32)CC1 [Example 26, 4-((cis)-4-((R)-1-([1,2,4]triazolo[4,3-a]pyridin-3-yl)ethyl)cyclohexyl)-6-fluoroquinoline] |
| 836 | C[C@@H](c1ncc2ccccn12)[C@H]1CC[C@@H](c2ccnc3ccc(F)cc32)CC1 [Example 27, 6-fluoro-4-((cis)-4-((R)-1-(imidazo[1,5-a]pyridin-3-yl)ethyl)cyclohexyl)quinoline] |
